Target: T1, human recombinant AT2 receptor (Homo sapiens, UniProt P50052)
T1 construct: purchased PerkinElmer 6110538; host or cells: HeLa cells
T1 sequence (P50052 1-363): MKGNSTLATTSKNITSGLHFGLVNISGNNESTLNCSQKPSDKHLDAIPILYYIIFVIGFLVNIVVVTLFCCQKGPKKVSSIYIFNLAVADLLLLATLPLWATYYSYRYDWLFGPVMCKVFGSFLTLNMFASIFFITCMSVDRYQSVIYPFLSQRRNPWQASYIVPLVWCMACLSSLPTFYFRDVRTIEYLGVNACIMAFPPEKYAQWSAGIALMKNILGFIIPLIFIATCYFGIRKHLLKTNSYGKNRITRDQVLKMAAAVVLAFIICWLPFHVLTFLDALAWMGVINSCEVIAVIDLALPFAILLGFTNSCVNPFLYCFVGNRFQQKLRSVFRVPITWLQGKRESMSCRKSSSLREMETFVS
Assay: Affinity for AT2 receptor (receptor binding assay)
Conditions: membrane fraction from HeLa cells expressing human recombinant AT2 receptor; 125I-[Sar1, Ile8]-Ang II 0.1 nmol/L
Protocol: Using a commercially available receptor membrane fraction (PerkinElmer, Cat No. 6110538) obtained from HeLa cells expressing human recombinant AT2 receptor, a receptor binding assay was performed. ^125I-[Sar^1, Ile^8]-Ang II (0.8 kBq, final concentration 0.1 nmol/L) and various concentrations of the compound of the present invention were added to a solution of 50 mmol/L Tris-HCl (pH 7.4), 125 mmol/L NaCl, 6.5 mmol/L MgCl2 and 1 mmol/L EDTA containing the receptor membrane fraction, and the mixture was incubated at room temperature for 90 min. Bound or free ^125I-[Sar^1, Ile^8]-Ang II was separated with a glass fiber filter (Millipore, MultiScreen FB Plate), and the radioactivity of ^125I-[Sar^1, Ile^8]-Ang II bound to the receptor was determined. […] On the other hand, Kd value of ^125I-[Sar^i, Ile^8]-Ang II for AT2 receptor in the absence of the compound of the present invention was determined by Scatchard analysis. Using the IC50 value obtained from the concentration-response curve and the Kd value of ^125I-[Sar^1, Ile^8]-Ang II, the Ki value of the compound of the present invention was calculated and used as an index of the affinity for AT2 receptor.

Ki | SMILES
16 nM | CCN(CC)C(=O)[C@H](Cc1ccc(NC(=O)c2ccccn2)cc1)C(=O)NS(=O)(=O)c1ccc2ccccc2c1 [Example 101, (2S)—N,N-diethyl-N′-(2-naphthylsulfonyl)-2-{4-[(2-pyridylcarbonyl)amino]benzyl}malonamide]
1.6 nM | CCN(CC)C(=O)[C@H](Cc1ccc(NC(=O)c2cc(F)c(F)cc2N)cc1)C(=O)NS(=O)(=O)c1ccc2ccccc2c1 [Example 106, (2S)-2-{4-[(2-amino-4,5-difluorobenzoyl)amino]benzyl}-N,N-diethyl-N′-(2-naphthylsulfonyl)malonamide]
6.4 nM | CC(C)N(C(=O)C(Cc1ccc(F)cc1)C(=O)NS(=O)(=O)/C=C/c1ccccc1)c1cccnc1 (stereo not shown) [Example 322, 2-(4-fluorobenzyl)-N-isopropyl-N-(3-pyridyl)-N′-((E)-styrylsulfonyl)malonamide]
1.8 nM | CCN(CC)C(=O)[C@H](Cc1ccc(NC(=O)c2c(N)cccc2F)cc1)C(=O)NS(=O)(=O)c1ccc2ccccc2c1 [Example 100, (2S)-2-{4-[(2-amino-6-fluorobenzoyl)amino]benzyl}-N,N-diethyl-N′-(2-naphthylsulfonyl)malonamide]
1.6 nM | CCN(CC)C(=O)[C@H](Cc1ccc(NC(=O)c2ccc(F)cc2N)cc1)C(=O)NS(=O)(=O)c1ccc2ccccc2c1 [Example 107, (2S)-2-{4-[(2-amino-4-fluorobenzoyl)amino]benzyl}-N,N-diethyl-N′-(2-naphthylsulfonyl)malonamide]
9.2 nM | CC(C)CC(C(=O)NS(=O)(=O)/C=C/c1ccccc1)C(=O)N(c1ccc(F)cc1)C(C)C (stereo not shown) [Example 491, N-(4-fluorophenyl)-2-isobutyl-N-isopropyl-N′-((E)-styrylsulfonyl)malonamide]
11 nM | CCN(C(=O)C(CC(=O)N1CCc2ccccc2C1)C(=O)NS(=O)(=O)/C=C/c1ccccc1)c1ccccc1 (stereo not shown) [Example 441, 2-[2-(3,4-dihydroisoquinolin-2(1H)-yl)-2-oxoethyl]-N-ethyl-N-phenyl-N′-((E)-styrylsulfonyl)malonamide]
9 nM | C=CCC(C(=O)NS(=O)(=O)/C=C/c1ccccc1)C(=O)N(c1ccc(F)cc1)C(C)C (stereo not shown) [Example 481, 2-allyl-N-(4-fluorophenyl)-N-isopropyl-N′-((E)-styrylsulfonyl)malonamide]
2.3 nM | CCN(CC)C(=O)[C@H](Cc1ccc(NC(=O)c2ccccc2)cc1)C(=O)NS(=O)(=O)c1ccc2ccccc2c1 [Example 92, (2S)-2-[4-(benzoylamino)benzyl]-N,N-diethyl-N′-(2-naphthylsulfonyl)malonamide]
6.1 nM | CC(C)N(C(=O)C(CC1CC1)C(=O)NS(=O)(=O)/C=C/c1ccccc1)c1ccc(F)cc1 (single isomer, unassigned) [Example 516, (2S or 2R)-2-cyclopropylmethyl-N-(4-fluorophenyl)-N-isopropyl-N′-((E)-2-styrylsulfonyl)malonamide]
9.7 nM | CCN(CC)C(=O)[C@H](Cc1ccc(NC(=O)c2cc(C)ccc2N)cc1)C(=O)NS(=O)(=O)c1ccc2ccccc2c1 [Example 108, (2S)-2-{4-[(2-amino-5-methylbenzoyl)amino]benzyl}-N,N-diethyl-N′-(2-naphthylsulfonyl)malonamide]
5.4 nM | CCN(CC)C(=O)[C@H](Cc1ccc(NC(=O)c2cc(Cl)ccc2N)cc1)C(=O)NS(=O)(=O)c1ccc2ccccc2c1 [Example 105, (2S)-2-{4-[(2-amino-5-chlorobenzoyl)amino]benzyl}-N,N-diethyl-N′-(2-naphthylsulfonyl)malonamide]
3.3 nM | CCN(CC)C(=O)[C@H](Cc1ccc(NC(=O)c2ccccc2N)cc1)C(=O)NS(=O)(=O)c1ccc2ccccc2c1 [Example 104, (2S)-2-{4-[(2-aminobenzoyl)amino]benzyl}-N,N-diethyl-N′-(2-naphthylsulfonyl)malonamide]
10 nM | CC(C)N(C(=O)C(CC1CC1)C(=O)NS(=O)(=O)CCc1ccccc1)c1ccc(F)cc1 (stereo not shown) [Example 529, 2-cyclopropylmethyl-N-(4-fluorophenyl)-N-isopropyl-N′-phenethylsulfonylmalonamide]
34 nM | CCN(CC)C(=O)C(CCCc1ccc(N)cc1)C(=O)NS(=O)(=O)c1ccc2ccccc2c1 (stereo not shown) [Example 147, 2-[3-(4-aminophenyl)propyl]-N,N-diethyl-N′-(2-naphthylsulfonyl)malonamide]
12 nM | CCN(C(=O)C(Cc1cnn(Cc2ccccc2)c1)C(=O)NS(=O)(=O)/C=C/c1ccccc1)c1ccccc1 (stereo not shown) [Example 371, 2-[(1-benzyl-1H-pyrazol-4-yl)methyl]-N-ethyl-N-phenyl-N′-((E)-styrylsulfonyl)malonamide]
8.4 nM | CC(C)CC(C(=O)NS(=O)(=O)c1ccc2ccccc2c1)C(=O)N(c1ccc(F)cc1)C(C)C (stereo not shown) [Example 495, N-(4-fluorophenyl)-2-isobutyl-N-isopropyl-N′-(2-naphthylsulfonyl)malonamide]
13 nM | C=CCC(C(=O)NS(=O)(=O)/C=C/c1ccccc1)C(=O)N(CC)c1cccc(C(F)(F)F)c1 (stereo not shown) [Example 475, 2-allyl-N-ethyl-N′-((E)-styrylsulfonyl)-N-(3-trifluoromethylphenyl)malonamide]
0.9 nM | CCN(CC)C(=O)[C@H](Cc1ccc(NC(=O)c2cc(F)ccc2N)cc1)C(=O)NS(=O)(=O)c1ccc2ccccc2c1 [Example 99, (2S)-2-{4-[(2-amino-5-fluorobenzoyl)amino]benzyl}-N,N-diethyl-N′-(2-naphthylsulfonyl)malonamide]
8 nM | CCN(CC)C(=O)C(Cc1ccc(NC(=O)c2c(F)cccc2F)cc1)C(=O)NS(=O)(=O)c1ccc2ccccc2c1 (stereo not shown) [Example 22, N,N-diethyl-2-{4-[(2,6-difluorobenzoyl)amino]benzyl}-N′-(2-naphthylsulfonyl)malonamide]
13 nM | CC(C)N(C(=O)C(CC1CC1)C(=O)NS(=O)(=O)c1ccc2ccccc2c1)c1ccc(F)cc1 (stereo not shown) [Example 530, 2-cyclopropylmethyl-N-(4-fluorophenyl)-N-isopropyl-N′-(2-naphthylsulfonyl)malonamide]
3.2 nM | CCN(CC)C(=O)[C@H](Cc1ccc(NC(=O)c2ccc(Cl)cc2N)cc1)C(=O)NS(=O)(=O)c1ccc2ccccc2c1 [Example 103, (2S)-2-{4-[(2-amino-4-chlorobenzoyl)amino]benzyl}-N,N-diethyl-N′-(2-naphthylsulfonyl)malonamide]
5.2 nM | CC(C)CC(C(=O)NS(=O)(=O)CCc1ccccc1)C(=O)N(c1ccc(F)cc1)C(C)C (stereo not shown) [Example 493, N-(4-fluorophenyl)-2-isobutyl-N-isopropyl-N′-phenethylsulfonylmalonamide]
12 nM | CC(C)CC(C(=O)NS(=O)(=O)CCCOc1ccccc1)C(=O)N(c1ccc(F)cc1)C(C)C (stereo not shown) [Example 496, N-(4-fluorophenyl)-2-isobutyl-N-isopropyl-N′-(3-phenoxypropylsulfonyl)malonamide]

SMILES | Ki
CCN(CC)C(=O)C(Cc1ccc(NC(=O)Oc2ccccc2)cc1)C(=O)NS(=O)(=O)c1ccc2ccccc2c1 (stereo not shown) [Example 87, N,N-diethyl-N′-(2-naphthylsulfonyl)-2-[4-(phenoxycarbonylamino)benzyl]malonamide] | 23 nM
